# US20130338176A1, “METHODS OF PREVENTING AND TREATING HYPERLIPIDEMIA OR ATHEROSCLEROSIS” (The Trustees of Columbia University in the City of New York, priority 2010, published 2013)
# What was measured:
# [1] = system: ApoE−/− mice; assay: Atherosclerotic plaque area in Oil Red O stained aortas, ApoE−/− mice; format: in vivo; settings: vs placebo
# Excerpt: (§1) To study the effect of gut-derived serum or plasma serotonin on the development of atherosclerosis, two well-studied genetic mouse models of hypercholesterolemia and atherosclerosis were used, namely mice with deletions in both copies of the apoliprotein E gene (referred to as ApoE−/− mice) and mice carrying deletions of both copies of the low density lipoprotein receptor gene (LDLR−/− mice). These mice have elevated blood cholesterol levels due to a defect in hepatic clearance of cholesterol containing very low density lipoproteins and low density lipoproteins (Ishibashi et al., 1993, J. Clin. Invest. 92:883-893; Plump et al., 1992, Cell 71:343-353). To accelerate the process of atherosclerotic plaque development, the mice were placed on a high cholesterol rodent diet at 5 weeks of age and fed this diet for 12 weeks. […]
# (§2) After 12 weeks of high cholesterol diet and administration of therapeutic agent or placebo, the mice were sacrificed to determine the amount of atheromas in their aortas. […] A quantitative computer-assisted image analysis (ImageJ) of the plaque staining areas was performed and correlated with the whole vessel wall areas.
# [2] = system: LDLR−/− mice; assay: Atherosclerotic plaque area in Oil Red O stained aortas, LDLR−/− mice; format: in vivo; settings: vs placebo
# Excerpt: as §1, §2
# [3] = system: ApoE−/− mice; assay: Plasma serotonin determination (ELISA), ApoE−/− mice; format: in vivo; settings: high cholesterol diet 12 weeks, 200 mg per kg per day orally, vs placebo
# Excerpt: (§3) To study the effect of gut-derived serum or plasma serotonin on the development of atherosclerosis, two well-studied genetic mouse models of hypercholesterolemia and atherosclerosis were used, namely mice with deletions in both copies of the apoliprotein E gene (referred to as ApoE−/− mice) and mice carrying deletions of both copies of the low density lipoprotein receptor gene (LDLR−/− mice). These mice have elevated blood cholesterol levels due to a defect in hepatic clearance of cholesterol containing very low density lipoproteins and low density lipoproteins (Ishibashi et al., 1993, J. Clin. Invest. 92:883-893; Plump et al., 1992, Cell 71:343-353). To accelerate the process of atherosclerotic plaque development, the mice were placed on a high cholesterol rodent diet at 5 weeks of age and fed this diet for 12 weeks. During this period, the mice were orally administrated placebo (diluent) or LP-533401, an inhibitor of tryptophan hydroxylase 1 (TPH1), the key enzyme required for serum or plasma serotonin synthesis, at the dose of 200 mg per kg of body weight per day (FIG. 1).
# Serotonin content in the plasma was determined using Serotonin research ELISA (IBL, Cat. No. IB89540) according to the manufacturer's instructions.
# [4] = system: ApoE−/− mice; assay: Plasma cholesterol, triglyceride, glycerol and free fatty acid levels, ApoE−/− mice; format: in vivo
# Excerpt: as §3
# (§4) Cholesterol, triglycerides, glycerol, and free fatty acids were measured in plasma from 4 hours fasted mice using commercially available kits (Cholesterol E, Wako, Cat. No. 439-17501; Triglycerides determination kit, Sigma, Cat. No. TR0100-1KT (measures both triglycerides and glycerol), HR Series NEFA-HR, Wako, Cat. No. 999-34691) according to the manufacturer's instructions.
# [5] = system: LDLR−/− mice; assay: Plasma cholesterol and triglyceride levels, LDLR−/− mice; format: in vivo; settings: high cholesterol diet, vs placebo
# Excerpt: as §1, §4
# [6] = system: wild type mice; assay: Plasma cholesterol, triglyceride, glycerol and free fatty acid levels, wild type mice; format: in vivo; settings: vs placebo
# Protocol: as §4
# [7] = system: adipose tissue explants; assay: Adipose tissue explants, FFA and glycerol release on stimulation with serotonin; format: cell-based, mice; settings: white adipose tissue explants, ex vivo
# Protocol: (§5) Epigonadal fat pads were isolated from 8 week old wild type male mice, cut into 20 mg fragments, and placed in culture medium (DMEM low glucose, 0.1% bovine serum albumin, both from Invitrogen) in a cell incubator (37° C., 5% CO2 atmosphere) for 2 h. After this time, the fat explants were stimulated for 2 h with different concentrations of serotonin. Concentrations of free fatty acids (FFA) and glycerol were measured in the medium. For gene expression analysis, tissue was homogenized in TRIZOL® reagent (Sigma) and RNA was isolated according to the manufacturer's instructions. The RNA was used as a template for cDNA synthesis (cDNA synthesis kit, Invitrogen). The relative gene expression was quantified using Real Time PCR.
# [8] = system: adipose tissue explants; assay: Adipose tissue explants, mRNA expression of lipolysis genes (Real Time PCR); format: cell-based, mice; settings: 25 μM serotonin, vs untreated control
# Protocol: as §5
# [9] = ApoE−/− mice fed high cholesterol diet, vs placebo
# [10] = ApoE−/− mice fed normal rodent chow diet, vs placebo
# [11] = 2 h stimulation, all tested concentrations
smiles,measurement,setting,value
Nc1nc(OC(c2ccc(-c3cccc(F)c3)cc2)C(F)(F)F)cc(-c2ccc(C[C@H](N)C(=O)O)cc2)n1 (stereo partly drawn) [LP-533401],reduction of the area occupied by atherosclerotic plaques,"[1]; high cholesterol diet 12 weeks, 200 mg per kg of body weight per day orally",44%
same,atheroma formation,[1]; FIG. 2,decreased atheroma formation
same,reduction in the amount of atherosclerotic plaques,"[2]; high cholesterol diet 12 weeks, 200 mg per kg per day orally",40%
same,atheroma formation,[2]; FIG. 3,lowers atheroma formation
same,reduction of plasma serotonin levels,[3],80%
same,FFA levels,[4]; [9],reduced
same,glycerol levels,[4]; [9],reduced
same,FFA levels,[4]; [10],reduced
same,glycerol levels,[4]; [10],reduced
same,"cholesterol levels in plasma, reduced in comparison to placebo","[4]; ApoE−/− mice, high cholesterol diet, 200 mg per kg per day orally, 4 hours fasted",30%
same,triglyceride levels,"[4]; ApoE−/− mice, high cholesterol diet, vs placebo",does not alter triglyceride levels
same,triglyceride levels,[5],does not alter triglyceride levels
same,FFA levels,[6],reduced
same,cholesterol levels,[6],did not alter cholesterol levels
same,glycerol levels,[6],reduced
same,triglyceride levels,[6],lowers triglyceride levels
"NCCc1c[nH]c2ccc(O)cc12 [serotonin, 5-hydroxytryptamine]",concentration giving the highest stimulation of FFA and glycerol secretion,[7],25 µM
same,secretion of FFA from the adipose tissue,[7]; [11],stimulated secretion
same,secretion of glycerol from the adipose tissue,[7]; [11],stimulated secretion
same,expression levels of CGI58,[8],does not influence the expression levels
same,expression levels of GOS2,[8],does not influence the expression levels
same,expression levels of perilipin,[8],does not influence the expression levels
same,expression of adipose triglyceride lipase (ATGL),[8],does not affect
same,expression of hormone sensitive lipase (HSL),[8],promotes the expression
